# Target: T1, Enkephalinase (Rattus norvegicus, UniProt P07861)
# T1 construct: from tissue; host or cells: rat striatum, membrane fraction (20,000 g pellet)
# T1 sequence (P07861 1-750): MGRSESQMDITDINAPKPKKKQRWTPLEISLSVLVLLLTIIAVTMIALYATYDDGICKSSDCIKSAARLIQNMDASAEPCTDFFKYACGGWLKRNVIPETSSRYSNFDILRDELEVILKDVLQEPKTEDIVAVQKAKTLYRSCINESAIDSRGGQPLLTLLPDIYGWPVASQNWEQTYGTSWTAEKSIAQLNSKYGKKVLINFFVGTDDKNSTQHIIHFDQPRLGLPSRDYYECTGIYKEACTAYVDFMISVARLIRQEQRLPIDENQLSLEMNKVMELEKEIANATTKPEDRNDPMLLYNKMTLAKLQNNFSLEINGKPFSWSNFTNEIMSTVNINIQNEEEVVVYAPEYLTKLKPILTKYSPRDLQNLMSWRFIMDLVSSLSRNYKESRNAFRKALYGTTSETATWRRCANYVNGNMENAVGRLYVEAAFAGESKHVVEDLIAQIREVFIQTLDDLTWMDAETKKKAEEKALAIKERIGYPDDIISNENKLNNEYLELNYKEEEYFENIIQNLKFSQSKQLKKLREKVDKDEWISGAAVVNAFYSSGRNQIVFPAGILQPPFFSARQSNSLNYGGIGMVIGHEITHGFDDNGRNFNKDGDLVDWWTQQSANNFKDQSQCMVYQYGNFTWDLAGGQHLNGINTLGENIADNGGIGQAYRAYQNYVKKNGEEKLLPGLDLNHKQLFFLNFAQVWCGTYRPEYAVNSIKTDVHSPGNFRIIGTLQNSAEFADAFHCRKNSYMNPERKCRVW
# Assay: Inhibition of enkephalinase in rat striatum membrane fraction (hydrolysis of tritiated leucine-enkephaline)
# Format: biochemical
# Conditions: striatum membrane fraction of rats; 20 nanomoles tritiated leucine-enkephaline, 1 mM puromycin, 25° C., 15 minutes, Tris pH 7.4; read-out: Enkephalinase inhibition CI50
# Procedure: Enkephalinase activity was determined in a striatum membrane fraction of rats. The straitum was placed in ice and was homogenized in buffered 0.05M Tris with a pH of 7.4 (20 times the volume) and after a first centrifugation at 1000 g, the particular fraction obtained was subjected to two centrifugations for 10 minutes at 20,000 g. The culot was then suspended in buffered Tris and kept at 4° C. The amount of proteins was determined by the Comassie blue method.
# After preincubation at 25° C. for 15 minutes, an aliquot of proteins was incubated at 25° C. for 15 minutes in the presence of 20 nanomoles of tritiated leucine-enkephaline (against the first amino acid) previously purified, of 1 mM of puromycin and the test product in buffered Tris. The hydrolysis reaction was stopped by addition of 0.2N hydrochloric acid and the icubate was subjected to a deproteinization by heating at 95° C. for 15 minutes. Under these conditions, the kinetic reaction was linear. The tritiated metabolites obtained by hydrolysis were separated from enkephaline by chromatography over a column of porapak Q and elution with buffered Tris whereby enkephaline was retained in the column and was released in the following ethanolic phase. The activity of the different products was expressed in 50% inhibiting concentration called CI50 in Table I.
row,IC50 [µM],SMILES
1,3,"O=C(CS)Nc1ccccc1 [N--phenyl-2-mercapto-acetamide, N-phenyl-2-mercapto-acetamide]"
2,40,"O=C(CCS)Nc1ccccc1 [N--phenyl-3-mercapto-propanamide, N-phenyl-3-mercapto-propanamide]"

# The remaining lines, values behind:
row,SMILES,IC50 [µM]
1,CC(=O)SCC(=O)Nc1nccs1 [Ethanethioate of S-[2-(2-thiazolylamino)-2-oxo-ethyl]],130
2,CC(=O)SCC(=O)Nc1ccc(Cl)cc1 [Ethanethioate of S-[2-(4-chlorophenylamino)-2-oxo-ethyl]],6
3,"O=C(CS)Nc1nccs1 [N--(2-thiazolyl)-2-mercapto-acetamide, N-(2-thiazolyl)-2-mercapto-acetamide]",30
4,"O=C(CS)Nc1ccc(Cl)cc1 [N--(4-chlorophenyl)-2-mercapto-acetamide, N-(4-chlorophenyl)-2-mercapto-acetamide]",5

# From patent US4567198A, “Ethanethioates and mercaptoamides and use thereof as analgesic and enkephalinase inhibitory compounds” (Roussel Uclaf, priority 1983, dated 1986)
